{
  "source": "patent US6916837B2",
  "about": "“Amidino derivatives and anticoagulants and thrombosis therapeutic agents containing them” (Eisai Co., Ltd., priority 2001, dated 2005)",
  "note": "Counter-ions that a name gives are not always drawn.",
  "data": [
    {"biological_target": "T1, human blood clotting factor VIIa (Homo sapiens, UniProt P08709)", "T1 construct": "5 nM human blood clotting factor VIIa", "T1 sequence (P08709 213-466 limits assumed)": "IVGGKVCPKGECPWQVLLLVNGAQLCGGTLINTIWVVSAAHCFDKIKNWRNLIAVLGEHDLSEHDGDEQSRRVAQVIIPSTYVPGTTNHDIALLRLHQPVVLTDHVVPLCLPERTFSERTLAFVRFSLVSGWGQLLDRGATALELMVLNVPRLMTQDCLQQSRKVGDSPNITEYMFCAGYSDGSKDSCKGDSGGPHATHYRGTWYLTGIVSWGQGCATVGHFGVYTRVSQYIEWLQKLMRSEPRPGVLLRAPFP", "T1 sequence (P08709 61-212 limits assumed)": "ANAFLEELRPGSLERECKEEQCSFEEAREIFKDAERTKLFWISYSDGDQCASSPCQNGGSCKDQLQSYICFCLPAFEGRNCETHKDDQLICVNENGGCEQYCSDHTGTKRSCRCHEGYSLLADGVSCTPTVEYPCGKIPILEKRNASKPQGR", "T1 sequence (P13726 33-295 partner)": "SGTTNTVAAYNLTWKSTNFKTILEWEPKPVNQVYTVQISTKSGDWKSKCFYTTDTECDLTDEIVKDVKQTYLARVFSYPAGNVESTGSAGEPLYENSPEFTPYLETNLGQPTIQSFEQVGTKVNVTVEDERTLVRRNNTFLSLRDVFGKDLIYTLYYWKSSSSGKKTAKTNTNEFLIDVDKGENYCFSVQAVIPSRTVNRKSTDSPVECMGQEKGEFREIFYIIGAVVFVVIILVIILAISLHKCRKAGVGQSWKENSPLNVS", "experiment": "Inhibiting activity against blood clotting factor VIIa (Spectrozyme VII chromogenic assay)", "assay_type": "biochemical", "conditions": "10 nM human tissue factor, 5 nM human blood clotting factor VIIa, Spectrozyme VII substrate, 40 minutes at room temperature, absorbance 405 nm", "description": "Pharmacological Activity Test (Inhibiting Activity Against Blood Clotting Factor VIIa)\nCompounds of the present invention (Examples 1-4, 1-26, 1-39, 1-40 and 8-3) were each dissolved in dimethyl sulfoxide to 5 mg/ml, and then each solution was diluted 50-fold with reaction buffer to prepare a 100 μg/ml solution (2% dimethyl sulfoxide solution) Also, a 10-fold dilution series with reaction buffer was prepared with the compound solutions from 100 μg/ml to 1 ng/ml. Separately, dimethyl sulfoxide alone was diluted 50-fold with reaction buffer to prepare a 2% dimethyl sulfoxide solution as a control. The composition of the reaction buffer was 50 mM Tris-acetate (pH 7.5), 15 mM calcium chloride (CaCl2), 0.15 M sodium chloride (NaCl) and 6 mg/ml Cephalin. There were also added to the buffer 10 nM human tissue factor (TF) and 5 nM human blood clotting factor VIIa, to prepare enzyme solutions. After separating off 65 μl of each solution, a 10 μl portion of the 2% dimethyl sulfoxide solution of each compound of the invention was added and preincubation was performed at room temperature. As a substrate there was added 25 μl of 1.0 mM Spectrozyme VII, and reaction was conducted for 40 minutes at room temperature. The enzyme reaction rate was quantified by the change ion absorbance of released 4-nitroanilide at 405 nm.\nFor measurement of the inhibiting activity against human blood clotting factor VIIa, the enzyme reaction rate was determined in the presence of the above-mentioned compounds of the present invention from 10 μg/ml to 0.1 ng/ml. The IC50 values were calculated based on nonlinear regression analysis, as an index of the inhibiting activity against human blood clotting factor VIIa.", "units": {"IC50": "nM"}, "values": [
      {"smiles": "N=C(N)c1ccc2cc(Oc3ccc(NS(=O)(=O)c4ccc5ccccc5c4)cc3C(=O)O)ccc2c1", "note": "[Example 1-4, 2-(6-amidino-2-naphthyloxy)-5-(2-naphthalenesulfonyl)aminobenzoic acid trifluoroacetate]", "IC50": 1430},
      {"smiles": "COc1ccc(S(=O)(=O)Nc2ccc(Oc3ccc4cc(C(=N)N)ccc4c3)c(-c3ccccc3C(=O)O)c2)cc1", "note": "[Example 1-26, 2′-(6-amidino-2-naphthyloxy)-5′-(4-methoxybenzenesulfonyl)amino-1,1′-biphenyl-2-carboxylic acid trifluoroacetate]", "IC50": 210},
      {"smiles": "CC(=O)N1CCc2ccc(S(=O)(=O)Nc3ccc(Oc4ccc5cc(C(=N)N)ccc5c4)c(-c4ccccc4C(=O)O)c3)cc2C1", "note": "[Example 1-39, 2′-(6-amidino-2-naphthyloxy)-5′-[1,2,3,4-tetrafluoro-2-(acetyl)isoquinoline-7-sulfonyl)amino-1,1′-biphenyl-2-carboxylic acid trifluoroacetate]", "IC50": 30},
      {"smiles": "Cc1ccc(S(=O)(=O)Nc2ccc(Oc3ccc4cc(C(=N)N)ccc4c3)c(-c3ccccc3C(=O)O)c2)cc1Cl", "note": "[Example 1-40, 2′-(6-amidino-2-naphthyloxy)-5′-(3-chloro-4-methylbenzenesulfonyl)amino-1,1′-biphenyl-2-carboxylic acid trifluoroacetate]", "IC50": 40},
      {"smiles": "Cc1ccc(S(=O)(=O)Nc2ccc(Oc3ccc4cc(C(=N)N)ccc4c3)c(-c3ccc(C(=O)NCC(C)C)cc3C(=O)O)c2)cc1Cl", "note": "[Example 8-3, 2′-(6-amidino-2-naphthyloxy)-4-(2-methylpropylcarbamoyl)-5′-(3-chloro-4-methylbenzenesulfonyl)amino-1,1′-biphenyl-2-carboxylic acid trifluoroacetate]", "IC50": 4}
    ]}
  ]
}
